What was measured:
BoNT/A LC [1] = biological target: T1, BoNT/A LC (Clostridium botulinum, UniProt P0DPI0); test: biochemical; format: biochemical
BoNT/A LC [2] = biological target: T1, BoNT/A LC; test: biochemical

T1 sequence (P0DPI0 2-448 limits assumed): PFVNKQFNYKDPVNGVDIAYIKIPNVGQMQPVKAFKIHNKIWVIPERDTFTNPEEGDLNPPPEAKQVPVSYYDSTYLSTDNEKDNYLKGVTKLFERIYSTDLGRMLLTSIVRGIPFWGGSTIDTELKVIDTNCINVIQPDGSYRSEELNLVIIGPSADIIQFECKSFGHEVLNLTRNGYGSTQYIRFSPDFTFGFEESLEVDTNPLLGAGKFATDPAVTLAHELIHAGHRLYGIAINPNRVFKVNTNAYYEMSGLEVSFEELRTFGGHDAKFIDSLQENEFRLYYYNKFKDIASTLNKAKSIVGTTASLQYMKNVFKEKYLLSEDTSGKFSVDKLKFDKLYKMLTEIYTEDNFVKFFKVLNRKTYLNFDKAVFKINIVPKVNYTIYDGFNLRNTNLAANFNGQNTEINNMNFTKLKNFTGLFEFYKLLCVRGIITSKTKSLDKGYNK

Molecule | IC50 (BoNT/A LC [1]) [nM] | further results
Cc1cccc2c1N(Cc1cc(=O)n3cccc(O)c3n1)CC2 [Compound 50, 9-Hydroxy-2-((7-methylindolin-1-yl)methyl)-4H-pyrido [1,2-a]pyrimidin-4-one] | 24000 ± 14000 | 
O=c1cc(CN2CCc3ccc(Br)cc32)nc2c(O)cccn12 [Compound 49, 2-((6-Bromoindolin-1-yl)methyl)-9-hydroxy-4H-pyrido [1,2-a]pyrimidin-4-one] | 700 ± 50 | 
CN(Cc1ccc(-c2ccccc2)cc1)Cc1cc(=O)n2cccc(O)c2n1 [Compound 28, 2-((([1,1′-biphenyl]-4-ylmethyl)(methyl)amino)methyl)-9-hydroxy-4H-pyrido [1,2-a]pyrimidin-4-one] | 12000 ± 200 | 
O=c1cc(CN2CCc3ccc(-c4ccccc4)cc32)nc2c(O)cccn12 [Compound 56, 9-Hydroxy-2-((6-phenylindolin-1-yl)methyl)-4H-pyrido [1,2-a]pyrimidin-4-one] | 600 ± 100 | 
O=c1cc(COCc2ccc(Cl)cc2)nc2c(O)cccn12 [Compound 36, 2-(((4-Chlorobenzyl)oxy)methyl)-9-hydroxy-4H-pyrido [1,2-a]pyrimidin-4-one] | 4130 ± 90 | 
COC(=O)c1ccc2c(c1)N(Cc1cc(=O)n3cccc(O)c3n1)CC2 [Compound 53, Methyl-1-((9-hydroxy-4-oxo-4H-pyrido [1,2-a]pyrimidin-2-yl)methyl)indoline-6-carboxylate] | 1100 ± 100 | 
O=c1cc(CNCc2cccc(-c3ccccc3)c2)nc2c(O)cccn12 [Compound 26, 2-((([1,1′-biphenyl]-3-ylmethyl)amino)methyl)-9-hydroxy-4H-pyrido [1,2-a]pyrimidin-4-one] | 600 ± 100 | 
COc1ccc2c(c1)N(Cc1cc(=O)n3cccc(O)c3n1)CC2 [Compound 51, 9-Hydroxy-2-((6-methoxyindolin-1-yl)methyl)-4H-pyrido [1,2-a]pyrimidin-4-one] | > 64000 | 
CCOc1cccn2c(=O)cc(CNCc3ccccc3)nc12 [Compound 11, 2-((Benzylamino)methyl)-9-ethoxy-4H-pyrido [1,2-a]pyrimidin-4-one] |  | inhibitory activity against BoNT/A LC (in words) (BoNT/A LC [1]): had a similar effect
O=c1cc(CN2CCc3cc(Br)ccc32)nc2c(O)cccn12 [Compound 48, 2-((5-Bromoindolin-1-yl)methyl)-9-hydroxy-4H-pyrido [1,2-a]pyrimidin-4-one] | 700 ± 100 | 
O=c1cc(CNCc2cccc(F)c2)nc2c(O)cccn12 [Compound 16, 2-(((3-Fluorobenzyl)amino)methyl)-9-hydroxy-4H-pyrido [1,2-a]pyrimidin-4-one] | 600 ± 100 | 
COC(=O)c1ccc(CNCc2cc(=O)n3cccc(O)c3n2)cc1 [Compound 25, Methyl 4-((((9-hydroxy-4-oxo-4H-pyrido [1,2-a]pyrimidin-2-yl)methyl)amino)methyl) benzoate] | > 64000 | 
O=c1cc(CNCCc2ccccc2)nc2c(O)cccn12 [Compound 29, 9-Hydroxy-2-((phenethylamino)methyl)-4H-pyrido [1,2-a]pyrimidin-4-one] | 10000 ± 1000 | 
O=c1cc(COCc2ccccc2)nc2c(O)cccn12 [Compound 30, 2-((Benzyloxy)methyl)-9-hydroxy-4H-pyrido [1,2-a]pyrimidin-4-one] | 2500 ± 300 | 
CS(=O)(=O)SCCCCCCCc1ccn2c(=O)cc(CNCc3ccc(-c4ccccc4)cc3)nc2c1O [Compound 84] |  | Ki (BoNT/A LC [2]): 32 ± 6 µM; kinact (BoNT/A LC [2]): 0.0038 ± 0.0008 s⁻¹; kinact/KI (BoNT/A LC [2]): 120 ± 30 M⁻¹ s⁻¹
Oc1cccc2ccc(CNCc3ccccc3)nc12 [Compound 14, 2-((Benzylamino)methyl)quinolin-8-ol] |  | decrease in inhibition (BoNT/A LC [1]): 15 fold
Cc1cccc(COCc2cc(=O)n3cccc(O)c3n2)c1 [Compound 38, 9-Hydroxy-2-(((3-methylbenzyl)oxy)methyl)-4H-pyrido [1,2-a]pyrimidin-4-one] | 6600 ± 500 | 
Cc1ccc(COCc2cc(=O)n3cccc(O)c3n2)cc1 [Compound 39, 9-Hydroxy-2-(((4-methylbenzyl)oxy)methyl)-4H-pyrido [1,2-a]pyrimidin-4-one] | 9100 ± 500 | 
O=c1cc(COCc2ccccc2F)nc2c(O)cccn12 [Compound 31, 2-(((2-Fluorobenzyl)oxy)methyl)-9-hydroxy-4H-pyrido [1,2-a]pyrimidin-4-one] | 18000 ± 2000 | 
COC(=O)c1ccc2c(c1)CCN2Cc1cc(=O)n2cccc(O)c2n1 [Compound 52, Methyl1-((9-hydroxy-4-oxo-4H-pyrido [1,2-a]pyrimidin-2-yl)methyl)indoline-5-carboxylate] | 1200 ± 700 | 
O=c1cc(CN2Cc3ccc(Br)cc3C2)nc2c(O)cccn12 [Compound 44, 2-((5-Bromoisoindolin-2-yl)methyl)-9-hydroxy-4H-pyrido [1,2-a]pyrimidin-4-one] | 400 ± 20 | 
O=c1cc(COCc2ccc(F)cc2)nc2c(O)cccn12 [Compound 33, 2-(((4-Fluorobenzyl)oxy)methyl)-9-hydroxy-4H-pyrido [1,2-a]pyrimidin-4-one] | 15000 ± 1000 | 
O=c1cc(CCCc2ccccc2)nc2c(O)cccn12 [Compound 7, 9-Hydroxy-2-(3-phenylpropyl)-4H-pyrido [1,2-a]pyrimidin-4-one] |  | inhibitory activity against BoNT/A LC (in words) (BoNT/A LC [1]): drastic decrease in inhibitory activity

Molecule | IC50 (BoNT/A LC [1]) [nM] | further results
CN(C)Cc1cc(=O)n2cccc(O)c2n1 [Compound 15, 2-((Dimethylamino)methyl)-9-hydroxy-4H-pyrido [1,2-a]pyrimidin-4-one] | > 64000 | 
Cc1ccc(CNCc2cc(=O)n3cccc(O)c3n2)cc1 [Compound 23, 9-Hydroxy-2-(((4-methylbenzyl)amino)methyl)-4H-pyrido [1,2-a]pyrimidin-4-one] | 1400 ± 900 | 
O=c1cc(CNCc2ccc(F)cc2)nc2c(O)cccn12 [Compound 17, 2-(((4-Fluorobenzyl)amino)methyl)-9-hydroxy-4H-pyrido [1,2-a]pyrimidin-4-one] | 1200 ± 200 | 
COc1cc(COCc2cc(=O)n3cccc(O)c3n2)cc(OC)c1 [Compound 41, 2-(((3,5-Dimethoxybenzyl)oxy)methyl)-9-hydroxy-4H-pyrido [1,2-a]pyrimidin-4-one] | 5200 ± 200 | 
O=c1cc(CNCc2ccc(Cl)cc2)nc2c(O)cccn12 [Compound 19, 2-(((4-Chlorobenzyl)amino)methyl)-9-hydroxy-4H-pyrido [1,2-a]pyrimidin-4-one] | 1100 ± 100 | 
COc1cccc(CNCc2cc(=O)n3cccc(O)c3n2)c1 [Compound 20, 9-Hydroxy-2-(((3-methoxybenzyl)amino)methyl)-4H-pyrido [1,2-a]pyrimidin-4-one] | 490 ± 90 | 
O=c1cc(COCc2ccccc2Cl)nc2c(O)cccn12 [Compound 34, 2-(((2-Chlorobenzyl)oxy)methyl)-9-hydroxy-4H-pyrido [1,2-a]pyrimidin-4-one] | 9000 ± 2000 | 
2-(((4-Chlorobenzyl)amino)methyl)-4H-pyrido [1,2-a]pyrimidin-4-one [Compound 10] |  | inhibitory activity against BoNT/A LC (in words) (BoNT/A LC [1]): complete ablation of inhibitory activity
O=c1cc(CN2CCc3ccccc32)nc2c(O)cccn12 [Compound 46, 9-Hydroxy-2-(indolin-1-ylmethyl)-4H-pyrido [1,2-a]pyrimidin-4-one] | 2900 ± 100 | 
O=c1cc(CN2Cc3ccc(-c4ccccc4)cc3C2)nc2c(O)cccn12 [Compound 45, 9-Hydroxy-2-((5-phenylisoindolin-2-yl)methyl)-4H-pyrido [1,2-a]pyrimidin-4-one] | 700 ± 100 | 
CCc1cc(=O)n2cccc(O)c2n1 [Compound 6, 2-Ethyl-9-hydroxy-4H-pyrido [1,2-a]pyrimidin-4-one] |  | inhibitory activity against BoNT/A LC (in words) (BoNT/A LC [1]): a decrease in inhibitory potency
O=c1cc(CN2CCc3cc(-c4ccccc4)ccc32)nc2c(O)cccn12 [Compound 55, 9-Hydroxy-2-((5-phenylindolin-1-yl)methyl)-4H-pyrido [1,2-a]pyrimidin-4-one] | 900 ± 300 | 
COc1ccc(CNCc2cc(=O)n3cccc(O)c3n2)cc1 [Compound 21, 9-Hydroxy-2-(((4-methoxybenzyl)amino)methyl)-4H-pyrido [1,2-a]pyrimidin-4-one] | 1900 ± 200 | 
O=c1cc(COCc2cccc([N+](=O)[O-])c2)nc2c(O)cccn12 [Compound 40, 9-Hydroxy-2-(((3-nitrobenzyl)oxy)methyl)-4H-pyrido [1,2-a]pyrimidin-4-one] | 9700 ± 800 | 
O=c1cc(CN2Cc3ccc(Cl)cc3C2)nc2c(O)cccn12 [Compound 43, 2-((5-Chloroisoindolin-2-yl)methyl)-9-hydroxy-4H-pyrido [1,2-a]pyrimidin-4-one] | 500 ± 200 | 
O=c1cc(COCc2cccc(O)c2)nc2c(O)cccn12 [Compound 37, 9-Hydroxy-2-(((3-hydroxybenzyl)oxy)methyl)-4H-pyrido [1,2-a]pyrimidin-4-one] | 26000 ± 2000 | 
CS(=O)(=O)SCCCCCCc1ccn2c(=O)cc(CNCc3ccc(-c4ccccc4)cc3)nc2c1O [Compound 83, S-(6-(2-((([1,1′-biphenyl]-4-ylmethyl)amino)methyl)-9-hydroxy-4-oxo-4H-pyrido [1,2-a]pyrimidin-8-yl)hexyl) methanesulfonothioate] |  | Ki (BoNT/A LC [2]): 3.4 ± 0.5 µM; kinact (BoNT/A LC [2]): 0.0028 ± 0.0002 s⁻¹; kinact/KI (BoNT/A LC [2]): 820 ± 30 M⁻¹ s⁻¹
O=c1cc(CN2Cc3ccccc3C2)nc2c(O)cccn12 [Compound 42, 9-Hydroxy-2-(isoindolin-2-ylmethyl)-4H-pyrido [1,2-a]pyrimidin-4-one] | 1200 ± 100 | potency compared to 2 (in words) (BoNT/A LC [1]): equipotent
NCc1cc(=O)n2cccc(O)c2n1 [Compound 13, 2-(Aminomethyl)-9-hydroxy-4H-pyrido [1,2-a]pyrimidin-4-one] |  | inhibitory activity against BoNT/A LC (in words) (BoNT/A LC [1]): a decrease in inhibitory potency
O=C(O)[C@@H]1CN(Cc2cc(=O)n3cccc(O)c3n2)C[C@H]1c1ccccn1 [Compound 3] | 1300 ± 200 | fold more potent than initial lead 1 (BoNT/A LC [1]): approximately seven-fold
COC(=O)c1cccc(CNCc2cc(=O)n3cccc(O)c3n2)c1 [Compound 24, Methyl 3-((((9-hydroxy-4-oxo-4H-pyrido [1,2-a]pyrimidin-2-yl)methyl)amino)methyl) benzoate] | 410 ± 80 | 
CC(O)c1cc2n(n1)CCN(Cc1cc(=O)n3cccc(O)c3n1)C2 (stereo not shown) [Compound 4] | 7000 ± 1000 | 
Cc1cccc(CNCc2cc(=O)n3cccc(O)c3n2)c1 [Compound 22, 9-Hydroxy-2-(((3-methylbenzyl)amino)methyl)-4H-pyrido [1,2-a]pyrimidin-4-one] | 500 ± 100 | 

Reference: article PMC10001950 (International Journal of Molecular Sciences, 2023)
